Reference: ChEMBL document CHEMBL4507270 (2021)

Legend:
[1] = molecular target: Ribosomal protein S6 kinase alpha-2 (Homo sapiens) (UniProt Q15349)
[2] = molecular target: Mitogen-activated protein kinase kinase kinase 1 (Homo sapiens) (UniProt Q13233)
[3] = molecular target: Phosphatidylinositol 4,5-bisphosphate 3-kinase catalytic subunit gamma isoform (Homo sapiens) (UniProt P48736)
[4] = molecular target: cGMP-dependent protein kinase 2 (Homo sapiens) (UniProt Q13237)
[5] = molecular target: Phosphatidylinositol 4-phosphate 5-kinase type-1 alpha (Homo sapiens) (UniProt Q99755)
[6] = molecular target: Mitogen-activated protein kinase 13 (Homo sapiens) (UniProt O15264)
[7] = molecular target: LIM domain kinase 1 (Homo sapiens) (UniProt P53667)
[8] = molecular target: Mitogen-activated protein kinase kinase kinase 11 (Homo sapiens) (UniProt Q16584)
[9] = molecular target: Death-associated protein kinase 3 (Homo sapiens) (UniProt O43293)
[10] = molecular target: Myosin light chain kinase (Homo sapiens) (UniProt Q32MK0)
Sequence of Myosin light chain kinase (Homo sapiens) (Q32MK0 whole entry): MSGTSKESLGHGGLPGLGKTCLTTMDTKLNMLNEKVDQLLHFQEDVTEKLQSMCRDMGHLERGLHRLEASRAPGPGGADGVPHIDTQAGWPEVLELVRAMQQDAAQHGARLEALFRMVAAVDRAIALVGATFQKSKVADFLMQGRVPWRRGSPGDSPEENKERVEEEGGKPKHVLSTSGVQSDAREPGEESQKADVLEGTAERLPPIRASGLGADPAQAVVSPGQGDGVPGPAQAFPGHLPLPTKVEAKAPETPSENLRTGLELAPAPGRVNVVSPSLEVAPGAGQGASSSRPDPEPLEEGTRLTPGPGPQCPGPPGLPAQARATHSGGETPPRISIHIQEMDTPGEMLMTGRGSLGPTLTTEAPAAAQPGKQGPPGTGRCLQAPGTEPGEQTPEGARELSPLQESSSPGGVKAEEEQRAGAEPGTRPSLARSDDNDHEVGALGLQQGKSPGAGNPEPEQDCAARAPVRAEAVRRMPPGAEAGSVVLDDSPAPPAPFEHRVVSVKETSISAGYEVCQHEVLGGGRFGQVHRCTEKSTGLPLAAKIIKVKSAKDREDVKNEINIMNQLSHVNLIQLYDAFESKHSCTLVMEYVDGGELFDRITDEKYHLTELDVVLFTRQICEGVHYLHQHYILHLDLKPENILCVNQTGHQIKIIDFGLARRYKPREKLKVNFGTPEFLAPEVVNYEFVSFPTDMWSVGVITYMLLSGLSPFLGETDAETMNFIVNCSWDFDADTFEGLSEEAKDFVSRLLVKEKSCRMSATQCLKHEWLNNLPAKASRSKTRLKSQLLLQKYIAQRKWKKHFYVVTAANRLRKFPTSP

[11] = molecular target: Insulin receptor-related protein (Homo sapiens) (UniProt P14616)
[12] = molecular target: Serine/threonine-protein kinase 26 (Homo sapiens) (UniProt Q9P289)
[13] = molecular target: Microtubule-associated serine/threonine-protein kinase 1 (Homo sapiens) (UniProt Q9Y2H9)
[14] = molecular target: Cyclin-dependent kinase 4 (Homo sapiens) (UniProt P11802)
Sequence of Cyclin-dependent kinase 4 (Homo sapiens) (P11802 whole entry): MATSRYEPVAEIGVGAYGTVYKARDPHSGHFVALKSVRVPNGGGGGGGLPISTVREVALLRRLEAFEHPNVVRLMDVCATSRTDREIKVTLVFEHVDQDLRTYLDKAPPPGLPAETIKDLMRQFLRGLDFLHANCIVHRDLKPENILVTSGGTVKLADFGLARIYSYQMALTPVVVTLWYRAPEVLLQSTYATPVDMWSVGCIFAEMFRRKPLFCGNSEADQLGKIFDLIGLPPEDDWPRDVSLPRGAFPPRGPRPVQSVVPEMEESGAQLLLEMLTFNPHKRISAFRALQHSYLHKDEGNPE

[15] = molecular target: Rhodopsin kinase GRK7 (Homo sapiens) (UniProt Q8WTQ7)
[16] = molecular target: Kappa-type opioid receptor (Homo sapiens, UniProt P41145); conditions: Compound concentration 10.0 uM
[17] = molecular target: Serine/threonine-protein kinase RIO2 (Homo sapiens) (UniProt Q9BVS4)
[18] = molecular target: Glycogen synthase kinase-3 alpha (Homo sapiens) (UniProt P49840)
[19] = molecular target: Non-receptor tyrosine-protein kinase TNK1 (Homo sapiens) (UniProt Q13470)
[20] = molecular target: Serine/threonine-protein kinase 32B (Homo sapiens) (UniProt Q9NY57)
Sequence of Serine/threonine-protein kinase 32B (Homo sapiens) (Q9NY57 whole entry): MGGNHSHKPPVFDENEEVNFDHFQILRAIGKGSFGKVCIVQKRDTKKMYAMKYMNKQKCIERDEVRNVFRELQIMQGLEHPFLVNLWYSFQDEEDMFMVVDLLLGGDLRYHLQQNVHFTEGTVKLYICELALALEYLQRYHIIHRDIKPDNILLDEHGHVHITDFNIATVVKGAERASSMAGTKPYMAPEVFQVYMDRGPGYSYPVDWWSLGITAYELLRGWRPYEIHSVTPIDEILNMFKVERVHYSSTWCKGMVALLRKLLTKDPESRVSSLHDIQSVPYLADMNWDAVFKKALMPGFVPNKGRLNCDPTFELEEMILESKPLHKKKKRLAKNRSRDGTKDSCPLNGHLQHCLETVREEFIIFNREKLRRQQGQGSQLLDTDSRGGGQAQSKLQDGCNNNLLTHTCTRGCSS

[21] = molecular target: Ribosomal protein S6 kinase alpha-3 (Homo sapiens) (UniProt P51812)
[22] = molecular target: Serine/threonine-protein kinase ULK3 (Homo sapiens) (UniProt Q6PHR2)
[23] = molecular target: Serine/threonine-protein kinase pim-3 (Homo sapiens) (UniProt Q86V86)
[24] = molecular target: Fibroblast growth factor receptor 1 (Homo sapiens, UniProt P11362)
Sequence of Fibroblast growth factor receptor 1 (P11362 22-822 limits assumed): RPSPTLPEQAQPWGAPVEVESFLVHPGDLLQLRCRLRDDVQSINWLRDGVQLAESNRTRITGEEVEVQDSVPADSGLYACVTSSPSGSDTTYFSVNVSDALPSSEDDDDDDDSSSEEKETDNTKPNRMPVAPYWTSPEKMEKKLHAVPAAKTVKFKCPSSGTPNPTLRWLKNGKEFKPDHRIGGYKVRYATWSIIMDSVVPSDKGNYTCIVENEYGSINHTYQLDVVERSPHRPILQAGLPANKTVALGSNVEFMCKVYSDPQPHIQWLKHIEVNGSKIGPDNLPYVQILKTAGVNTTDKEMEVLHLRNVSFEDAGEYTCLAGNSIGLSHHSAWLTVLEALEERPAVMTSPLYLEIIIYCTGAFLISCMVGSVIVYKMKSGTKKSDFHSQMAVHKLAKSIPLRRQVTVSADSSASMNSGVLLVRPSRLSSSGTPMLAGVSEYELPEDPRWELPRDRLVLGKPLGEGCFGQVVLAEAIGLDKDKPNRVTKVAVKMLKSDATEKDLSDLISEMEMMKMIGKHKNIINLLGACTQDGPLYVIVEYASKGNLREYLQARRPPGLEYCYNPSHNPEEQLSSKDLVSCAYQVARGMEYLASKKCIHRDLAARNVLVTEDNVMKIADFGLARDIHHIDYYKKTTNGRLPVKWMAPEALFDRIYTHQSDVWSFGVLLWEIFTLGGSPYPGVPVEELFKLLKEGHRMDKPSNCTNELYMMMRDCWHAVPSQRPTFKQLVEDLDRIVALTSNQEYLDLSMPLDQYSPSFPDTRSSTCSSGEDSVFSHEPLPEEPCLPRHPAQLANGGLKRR

[25] = GPCRScan assay: inhibition of GABA/PBR; design: species or system Rattus norvegicus; radioligand conc. used [nm] 0.3 – 2.0, parental cells brain tissue
[26] = tested on: Mast/stem cell growth factor receptor Kit (Homo sapiens), P10721 [V559D,V654A]
[27] = tested on: Proto-oncogene tyrosine-protein kinase receptor Ret (Homo sapiens), P07949 [V804M]
[28] = tested on: Receptor-type tyrosine-protein kinase FLT3 (Homo sapiens), P36888 [D835V]
[29] = molecular target: Cyclin-dependent kinase 11B (Homo sapiens) (UniProt P21127)
Sequence of Cyclin-dependent kinase 11B (Homo sapiens) (P21127 whole entry): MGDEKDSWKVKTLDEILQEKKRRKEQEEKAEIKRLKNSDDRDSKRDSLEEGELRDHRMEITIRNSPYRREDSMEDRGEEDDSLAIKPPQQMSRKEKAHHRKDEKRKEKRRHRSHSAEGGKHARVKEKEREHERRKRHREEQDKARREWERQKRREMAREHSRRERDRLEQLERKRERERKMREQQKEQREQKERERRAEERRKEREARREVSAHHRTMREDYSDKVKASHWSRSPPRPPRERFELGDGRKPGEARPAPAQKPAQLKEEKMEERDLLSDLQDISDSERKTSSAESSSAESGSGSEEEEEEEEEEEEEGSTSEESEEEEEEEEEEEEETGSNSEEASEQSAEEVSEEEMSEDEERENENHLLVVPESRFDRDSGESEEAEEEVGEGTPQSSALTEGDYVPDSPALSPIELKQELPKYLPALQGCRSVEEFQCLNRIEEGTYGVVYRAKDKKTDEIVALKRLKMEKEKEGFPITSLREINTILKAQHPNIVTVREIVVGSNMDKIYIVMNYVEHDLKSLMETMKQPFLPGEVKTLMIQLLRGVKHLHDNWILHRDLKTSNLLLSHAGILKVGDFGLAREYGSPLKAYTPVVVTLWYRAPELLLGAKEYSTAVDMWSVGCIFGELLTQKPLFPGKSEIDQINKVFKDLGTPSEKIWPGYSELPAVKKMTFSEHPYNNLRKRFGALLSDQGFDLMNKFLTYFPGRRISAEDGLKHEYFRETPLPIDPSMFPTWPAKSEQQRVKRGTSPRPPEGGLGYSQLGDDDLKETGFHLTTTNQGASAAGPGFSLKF

[30] = molecular target: Tyrosine-protein kinase Fer (Homo sapiens) (UniProt P16591)
[31] = molecular target: Cyclin-dependent kinase 17 (Homo sapiens) (UniProt Q00537)
[32] = molecular target: Serine/threonine-protein kinase ICK (Homo sapiens) (UniProt Q9UPZ9)
[33] = tested on: Receptor-type tyrosine-protein kinase FLT3 (Homo sapiens), P36888 [D835H]
[34] = molecular target: Serine/threonine-protein kinase PLK1 (Homo sapiens) (UniProt P53350)
Sequence of Serine/threonine-protein kinase PLK1 (Homo sapiens) (P53350 whole entry): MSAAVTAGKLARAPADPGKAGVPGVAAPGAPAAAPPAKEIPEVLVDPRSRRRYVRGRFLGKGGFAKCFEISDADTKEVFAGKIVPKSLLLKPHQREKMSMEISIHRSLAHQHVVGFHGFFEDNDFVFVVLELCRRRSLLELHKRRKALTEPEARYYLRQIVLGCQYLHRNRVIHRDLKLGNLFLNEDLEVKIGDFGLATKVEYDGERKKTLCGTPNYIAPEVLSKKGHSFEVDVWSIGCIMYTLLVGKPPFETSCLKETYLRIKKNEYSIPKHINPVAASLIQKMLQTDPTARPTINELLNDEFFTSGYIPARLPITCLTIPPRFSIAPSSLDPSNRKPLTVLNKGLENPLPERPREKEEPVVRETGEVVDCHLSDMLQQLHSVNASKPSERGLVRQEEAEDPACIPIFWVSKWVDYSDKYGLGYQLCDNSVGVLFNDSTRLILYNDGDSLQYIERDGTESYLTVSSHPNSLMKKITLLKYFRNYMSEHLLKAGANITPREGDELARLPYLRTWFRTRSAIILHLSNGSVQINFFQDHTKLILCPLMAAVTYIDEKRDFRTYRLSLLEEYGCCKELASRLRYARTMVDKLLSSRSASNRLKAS

[35] = molecular target: Serine/threonine-protein kinase OSR1 (Homo sapiens) (UniProt O95747)
[36] = molecular target: Casein kinase I isoform gamma-3 (Homo sapiens) (UniProt Q9Y6M4)
[37] = molecular target: Ephrin type-A receptor 5 (Homo sapiens) (UniProt P54756)
[38] = molecular target: Cyclin-dependent kinase 7 (Homo sapiens) (UniProt P50613)
Sequence of Cyclin-dependent kinase 7 (Homo sapiens) (P50613 whole entry): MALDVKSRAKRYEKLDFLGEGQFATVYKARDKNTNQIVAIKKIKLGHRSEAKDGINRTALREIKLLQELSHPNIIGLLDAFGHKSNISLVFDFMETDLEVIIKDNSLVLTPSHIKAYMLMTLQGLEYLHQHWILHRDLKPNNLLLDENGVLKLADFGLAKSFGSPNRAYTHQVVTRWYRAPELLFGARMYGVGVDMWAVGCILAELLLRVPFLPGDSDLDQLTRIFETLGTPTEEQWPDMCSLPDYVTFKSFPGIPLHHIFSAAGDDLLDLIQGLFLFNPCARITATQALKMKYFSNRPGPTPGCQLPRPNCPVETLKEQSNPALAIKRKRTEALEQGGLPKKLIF

[39] = tested on: Epidermal growth factor receptor (Homo sapiens), P00533 [UNDEFINED MUTATION]
[40] = molecular target: Ephrin type-A receptor 6 (Homo sapiens) (UniProt Q9UF33)
[41] = molecular target: MAP kinase-activated protein kinase 5 (Homo sapiens) (UniProt Q8IW41)
[42] = tested on: ALK tyrosine kinase receptor (Homo sapiens), Q9UM73 [C1156Y]
[43] = molecular target: Dual specificity testis-specific protein kinase 1 (Homo sapiens) (UniProt Q15569)
[44] = molecular target: Mitogen-activated protein kinase kinase kinase kinase 1 (Homo sapiens) (UniProt Q92918)
Sequence of Mitogen-activated protein kinase kinase kinase kinase 1 (Homo sapiens) (Q92918 whole entry, looked up): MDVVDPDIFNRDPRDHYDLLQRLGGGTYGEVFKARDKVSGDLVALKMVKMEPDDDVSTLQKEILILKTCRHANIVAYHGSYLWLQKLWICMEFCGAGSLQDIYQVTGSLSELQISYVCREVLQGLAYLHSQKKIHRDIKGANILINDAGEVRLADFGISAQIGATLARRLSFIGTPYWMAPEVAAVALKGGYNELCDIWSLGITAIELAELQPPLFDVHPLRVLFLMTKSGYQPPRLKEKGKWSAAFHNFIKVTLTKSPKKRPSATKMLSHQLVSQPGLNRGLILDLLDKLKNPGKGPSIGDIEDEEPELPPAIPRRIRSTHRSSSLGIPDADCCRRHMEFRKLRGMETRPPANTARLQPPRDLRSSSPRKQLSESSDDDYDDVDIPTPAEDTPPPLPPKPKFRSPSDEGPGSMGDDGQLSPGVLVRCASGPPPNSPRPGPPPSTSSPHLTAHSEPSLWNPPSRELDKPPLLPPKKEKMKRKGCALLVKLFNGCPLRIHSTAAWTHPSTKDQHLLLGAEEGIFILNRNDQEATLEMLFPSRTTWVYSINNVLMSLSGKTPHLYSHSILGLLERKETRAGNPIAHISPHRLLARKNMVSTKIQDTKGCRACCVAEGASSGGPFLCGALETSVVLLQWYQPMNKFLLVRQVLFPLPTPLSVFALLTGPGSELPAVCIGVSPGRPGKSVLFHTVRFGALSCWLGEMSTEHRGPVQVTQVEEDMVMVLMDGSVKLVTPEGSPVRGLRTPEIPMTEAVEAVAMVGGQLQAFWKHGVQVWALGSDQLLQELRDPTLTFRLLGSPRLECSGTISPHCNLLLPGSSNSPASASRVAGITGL

[45] = molecular target: Serine/threonine-protein kinase Sgk3 (Homo sapiens) (UniProt Q96BR1)
[46] = molecular target: Homeodomain-interacting protein kinase 4 (Homo sapiens) (UniProt Q8NE63)
[47] = Compound concentration 100.0 nM
[48] = Compound concentration 1000.0 nM

Q: What does the source list for Cc1cc(C)c(-n2ccn3nc(-c4cccnc4)cc23)cc1NC(=O)c1cc(C#N)cc(S(F)(F)(F)(F)F)c1 [BAY-826]?
A: residual activity [1, 47]: 65.1%; residual activity [2, 47]: 78.3%; residual activity [3, 47]: 98.5%; residual activity [4, 47]: 82.7%; residual activity [5, 47]: 95%; residual activity [6, 47]: 65.6%; residual activity [7, 47]: 83.6%; residual activity [8, 47]: 100%; residual activity [9, 47]: 78.1%; residual activity [10, 47]: 100%; residual activity [11, 47]: 91.8%; residual activity [12, 47]: 81.8%; residual activity [13, 47]: 100%; residual activity [14, 47]: 86.2%; residual activity [15, 47]: 65.6%; inhibition [16]: 89.4%; residual activity [17, 47]: 74.2%; residual activity [18, 47]: 100%; residual activity [19, 47]: 87.6%; residual activity [20, 47]: 94.3%; residual activity [21, 47]: 84.4%; residual activity [22, 47]: 100%; residual activity [23, 47]: 83.1%; residual activity [24, 47]: 85.5%; Ki [25]: 217 nM; residual activity [26, 47]: 89.4%; residual activity [27, 47]: 94.5%; residual activity [28, 47]: 85.2%; residual activity [29, 47]: 93.2%; residual activity [30, 47]: 100%; residual activity [31, 47]: 99.3%; residual activity [32, 47]: 74.1%; residual activity [33, 47]: 87.8%; residual activity [34, 47]: 100%; residual activity [35, 47]: 87%; residual activity [36, 47]: 93.7%; residual activity [37, 47]: 92.4%; residual activity [38, 47]: 70.1%; residual activity [39, 47]: 91.6%; residual activity [40, 47]: 82.6%; residual activity [41, 47]: 91.7%; residual activity [42, 47]: 76.6%; residual activity [43, 47]: 85.1%; residual activity [44, 47]: 100%; residual activity [45, 47]: 81.5%; residual activity [46, 47]: 95.6%

Q: With Cc1cc(NC(=O)c2cccc(S(F)(F)(F)(F)F)c2)cc(-n2ccn3nc(-c4cccnc4)cc23)c1 [BAY-309] as the compound, how does the residual activity [1, 48] read?
A: 100%

Q: What about the residual activity [2, 48] of the same compound?
A: 90%

Q: And the residual activity [3, 48]?
A: 100%

Q: What about the residual activity [4, 48] of the same compound?
A: 100%

Q: What about the residual activity [5, 48] of the same compound?
A: 100%

Q: What about the residual activity [6, 48] of the same compound?
A: 79.6%

Q: What about the residual activity [7, 48] of the same compound?
A: 100%

Q: What about the residual activity [8, 48] of the same compound?
A: 100%

Q: And the residual activity [9, 48]?
A: 100%

Q: And the residual activity [10, 48]?
A: 100%

Q: What about the residual activity [11, 48] of the same compound?
A: 100%

Q: What about the residual activity [12, 48] of the same compound?
A: 100%

Q: And the residual activity [13, 48]?
A: 100%

Q: And the residual activity [14, 48]?
A: 100%

Q: What about the residual activity [15, 48] of the same compound?
A: 100%

Q: And the inhibition [16]?
A: 64.8%

Q: And the residual activity [17, 48]?
A: 49.7%

Q: What about the residual activity [18, 48] of the same compound?
A: 100%

Q: What about the residual activity [19, 48] of the same compound?
A: 95%

Q: And the residual activity [20, 48]?
A: 100%

Q: And the residual activity [21, 48]?
A: 66.6%

Q: What about the residual activity [22, 48] of the same compound?
A: 75.2%

Q: What about the residual activity [23, 48] of the same compound?
A: 100%

Q: And the residual activity [24, 48]?
A: 100%

Q: And the Ki [25]?
A: 10.9 nM

Q: What about the pKi [25] of the same compound?
A: 8.03

Q: And the residual activity [26, 48]?
A: 100%

Q: And the residual activity [27, 48]?
A: 74.2%

Q: And the residual activity [28, 48]?
A: 100%

Q: And the residual activity [29, 48]?
A: 100%

Q: What about the residual activity [30, 48] of the same compound?
A: 59.4%

Q: And the residual activity [31, 48]?
A: 83.8%

Q: And the residual activity [32, 48]?
A: 64.2%

Q: What about the residual activity [33, 48] of the same compound?
A: 99.9%

Q: And the residual activity [34, 48]?
A: 95.3%

Q: And the residual activity [35, 48]?
A: 100%

Q: What about the residual activity [36, 48] of the same compound?
A: 100%

Q: What about the residual activity [37, 48] of the same compound?
A: 100%

Q: And the residual activity [38, 48]?
A: 100%

Q: What about the residual activity [39, 48] of the same compound?
A: 100%

Q: What about the residual activity [40, 48] of the same compound?
A: 100%

Q: What about the residual activity [41, 48] of the same compound?
A: 100%

Q: What about the residual activity [42, 48] of the same compound?
A: 100%

Q: What about the residual activity [43, 48] of the same compound?
A: 91.7%

Q: And the residual activity [44, 48]?
A: 82.1%

Q: And the residual activity [45, 48]?
A: 72.1%

Q: And the residual activity [46, 48]?
A: 100%
